# Experimental data as given in patent US20250034135A1, “ANTI-APOPTOTIC PROTEIN BCL-2 INHIBITOR, PHARMACEUTICAL COMPOSITION AND USES THEREOF” (HANGZHOU HEALZEN THERAPEUTICS CO., LTD., priority 2021, published 2025).
# Target: BCL2 (Homo sapiens (Human), UniProt P10415)
# Experiment: Molecular level activity test of anti-apoptotic protein BCL2 (HTRF, binding to Bim peptide)
# Conditions: HTRF, binding of BCL2 to Bim peptide; read-out: BCL2 nM (inhibitory activity, IC50)
# Procedure, shortened: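 Step one: compound, supplied in 2% DMSO, is mixed with His-tagged BCL2 and biotinylated Bim peptide and reacted for 1 h. Step two: anti-His and streptavidin-XL665 reagents in detection buffer are added. Step three: after a 4 h room-temperature incubation, time-resolved fluorescence is measured.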
# Sequence of BCL2 (P10415 whole entry): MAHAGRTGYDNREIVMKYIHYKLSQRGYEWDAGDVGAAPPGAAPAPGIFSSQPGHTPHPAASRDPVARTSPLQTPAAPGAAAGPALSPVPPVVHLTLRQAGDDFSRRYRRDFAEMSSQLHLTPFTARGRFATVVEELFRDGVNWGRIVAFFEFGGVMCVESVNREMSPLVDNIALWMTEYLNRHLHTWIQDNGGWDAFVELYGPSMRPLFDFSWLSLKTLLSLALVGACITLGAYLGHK
row,Structure (SMILES),IC50 [nM]
1,"COc1ccc(CN2CCN(C3CC4(CCN(c5cc(Oc6cnc7[nH]ccc7c6)c(C(=O)NS(=O)(=O)c6cc([N+](=O)[O-])c(NCC7(F)CCOCC7)c7oc(C)cc67)cc5F)CC4)C3)[C@H](c3ccccc3C(C)C)C2)cc1 [compound 111, (R)-2-((1H-pyrrolo[2,3-b]pyrid-5-yl)oxy)-5-fluoro-N-((7-(((4-fluorotetrahydro-2H-pyran-4-yl)methyl)amino)-2-methyl-6-nitrobenzofuran-4-yl)sulfonyl)-4-(2-(2-(2-isopropylphenyl)-4-(4-methoxybenzyl)piperazin-1-yl)-7-azaspiro[3.5]non-7-yl)benzamide]",< 10
2,"COc1ccc(CN2CCN(C3CC4(CCN(c5ccc(C(=O)NS(=O)(=O)c6cc([N+](=O)[O-])c(NC[C@H]7CC[C@](C)(O)CC7)c7c6OC(F)(F)O7)c(Oc6cnc7[nH]ccc7c6)c5)CC4)C3)[C@H](c3ccccc3C(C)C)C2)cc1 [compound 165, 2-((1H-pyrrolo[2,3-b]pyrid-5-yl)oxy)-N-((2,2-difluoro-7-((((1r, 4r)-4-hydroxy-4-methylcyclohexyl)methyl)amino)-6-nitrobenzo[d][1,3]dioxocyclopent-4-yl)sulfonyl)-4-(2-((R)-2-(2-isopropylphenyl)-4-(4-methoxybenzyl)piperazin-1-yl)-7-azaspiro[3.5]non-7-yl)benzamide]",< 10
3,"COc1ccc(CN2CCN(C3CC4(CCN(c5cc(Oc6cnc7[nH]ccc7c6)c(C(=O)NS(=O)(=O)c6cc([N+](=O)[O-])c(NCC7(F)CCOCC7)c7ocnc67)cc5F)CC4)C3)[C@H](c3ccccc3C(C)C)C2)cc1 [compound 107, (R)-2-((1H-pyrrolo[2,3-b]pyrid-5-yl)oxy)-5-fluoro-N-((7-(((4-fluorotetrahydro-2H-pyran-4-yl)methyl)amino)-6-nitrobenzo[d]oxazol-4-yl)sulfonyl)-4-(2-(2-(2-isopropylphenyl)-4-(4-methoxybenzyl)piperazin-1-yl)-7-azaspiro[3.5]non-7-yl)benzamide]",< 10
4,"CC(C)c1ccccc1[C@@H]1CN(Cc2cccc3c2OCCO3)CCN1C1CC2(CCN(c3cc(Oc4cnc5[nH]ccc5c4)c(C(=O)NS(=O)(=O)c4ccc(NCC5(F)CCOCC5)c([N+](=O)[O-])c4)cc3F)CC2)C1 [compound 208, (R)-2-((1H-pyrrolo[2,3-b]pyrid-5-yl)oxy)-4-(2-(4-((2,3-dihydrobenzo[b][1,4]dioxan-5-yl)methyl)-2-(2-isopropylphenyl)piperazin-1-yl)-7-azaspiro[3.5]non-7-yl)-5-fluoro-N-((4-(((4-fluorotetrahydro-2H-pyran-4-yl)methyl)amino)-3-nitrophenyl)sulfonyl)benzamide]",< 10
5,"CC(C)c1ccccc1[C@@H]1CN(Cc2ccncc2)CCN1C1CC2(CCN(c3cc(Oc4cnc5[nH]ccc5c4)c(C(=O)NS(=O)(=O)c4ccc(NCC5(F)CCOCC5)c([N+](=O)[O-])c4)cc3F)CC2)C1 [compound 211, (R)-2-((1H-pyrrolo[2,3-b]pyrid-5-yl)oxy)-5-fluoro-N-((4-(((4-fluorotetrahydro-2H-pyran-4-yl)methyl)amino)-3-nitrophenyl)sulfonyl)-4-(2-(2-(2-isopropylphenyl)-4-(pyrid-4-ylmethyl)piperazin-1-yl)-7-azaspiro[3.5]non-7-yl)benzamide]",< 10
6,"CC(C)c1ccccc1C1CN(C2CCOCC2)CCN1C1CC2(CCN(c3cc(Oc4cnc5[nH]ccc5c4)c(C(=O)NS(=O)(=O)c4ccc(NC[C@H]5CC[C@](C)(O)CC5)c([N+](=O)[O-])c4)cn3)CC2)C1 (stereo partly drawn) [compound 051, 4-((1H-pyrrolo[2,3-b]pyrid-5-yl)oxy)-N-((4-((((1r,4r)-4-hydroxy-4-methylcyclohexyl)methyl)amino)-3-nitrophenyl)sulfonyl)-6-(2-(2-(2-isopropylphenyl)-4-(tetrahydro-2H-pyran-4-yl)piperazin-1-yl)-7-azaspiro[3.5]non-7-yl) nicotinamide]",< 10
